From patent US20260315464A1, “COMPOSITIONS, METHODS, AND SYSTEMS FOR MODULATING SPLICING OF MSH3” (REVIR THERAPEUTICS, INC., priority 2023, published 2026)

System: MSH3
Assay: QPCR assay for levels of MSH3 upon compound treatment in HEK293T or AD293 cells (fold-change of MSH3 transcript, EC50 of MSH3 downregulation; total MSH3 exons 13/14, exons 20/21; Table 8)
Assay type: cell-based
Settings: for mrna remaining at 1 µM / mrna remaining at 10 µM: Homo sapiens, fold-change of the MSH3 transcript, normalized to GAPDH; for mrna remaining at 1 µM: 1 μM compound; for mrna remaining at 10 µM: 10 μM compound; for EC50: EC50 of MSH3 downregulation, XtalPi
How it was run: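 HEK293T or AD293 cells were treated at 1 μM and […]; RNA-to-cDNA qPCR used TaqMan assays for total MSH3 (exons 13/14, exons 20/21) and poison-exon junctions exon 13/PE14A and exon 20/PE21A. Transcript levels were normalized to GAPDH.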

SMILES | mrna remaining at 1 µM [%] | mrna remaining at 10 µM [%] | EC50 [nM]
CN(c1ncc(N2Cc3ncc(-c4cn(C)nc4F)cc3C2=O)nn1)[C@H]1C[C@]2(C)CC[C@](C)(C1)N2 [Compound 217, 6-(3-(((1R,3s,5S)-1,5-dimethyl-8-azabicyclo[3.2.1]octan-3-yl)(methyl)amino)-1,2,4-triazin-6-yl)-3-(3-fluoro-1-methyl-1H-pyrazol-4-yl)-6,7-dihydro-5H-pyrrolo[3,4-b]pyridin-5-one] | 92 | 78 | –
Cc1nn(C)cc1-c1cnc2c(c1)C(=O)N(c1ccc(OC3CCNC(C)(C)C3)nn1)C2 (centres unmarked) [Compound 226, 3-(1,3-dimethyl-1H-pyrazol-4-yl)-6-(6-((2,2-dimethylpiperidin-4-yl)oxy)pyridazin-3-yl)-6,7-dihydro-5H-pyrrolo[3,4-b]pyridin-5-one] | 86 | 58 | –
Cc1nn(C)nc1-c1cnc2c(c1)C(=O)N(c1ccc(OC3CC(C)(C)NC4(CC4)C3)nn1)C2 (centres unmarked) [Compound 228, 3-(2,5-dimethyl-2H-1,2,3-triazol-4-yl)-6-(6-((5,5-dimethyl-4-azaspiro[2.5]octan-7-yl)oxy)pyridazin-3-yl)-6,7-dihydro-5H-pyrrolo[3,4-b]pyridin-5-one] | 58 | 37 | 792
CC[C@]12CC[C@](CC)(C[C@@H](Oc3ccc(N4Cc5ncc(-c6cn(C)nc6C)cc5C4=O)nn3)C1)N2 [Compound 239, 6-(6-(((1R,3s,5S)-1,5-diethyl-8-azabicyclo[3.2.1]octan-3-yl)oxy)pyridazin-3-yl)-3-(1,3-dimethyl-1H-pyrazol-4-yl)-6,7-dihydro-5H-pyrrolo[3,4-b]pyridin-5-one] | 84 | 19 | 2040
CC[C@]12CC[C@](C)(C[C@@H](Oc3ccc(N4Cc5ncc(-c6cn(C)nc6C)cc5C4=O)nn3)C1)N2 [Compound 240, 3-(1,3-dimethyl-1H-pyrazol-4-yl)-6-(6-(((1S,3R,5R)-1-ethyl-5-methyl-8-azabicyclo[3.2.1]octan-3-yl)oxy)pyridazin-3-yl)-6,7-dihydro-5H-pyrrolo[3,4-b]pyridin-5-one] | 87 | 16 | 2310
Cn1cc(-c2cnc3c(c2)C(=O)N(c2ccc(O[C@H]4C[C@]5(C)CC[C@](C)(C4)N5)nn2)C3)c(Cl)n1 [Compound 261, 3-(3-chloro-1-methyl-1H-pyrazol-4-yl)-6-(6-(((1R,3s,5S)-1,5-dimethyl-8-azabicyclo[3.2.1]octan-3-yl)oxy)pyridazin-3-yl)-6,7-dihydro-5H-pyrrolo[3,4-b]pyridin-5-one] | 48 | 7 | –
Cc1nn(C)cc1-c1cc(F)c2c(c1)C(=O)N(c1ccc(N(C)[C@H]3C[C@]4(C)CC[C@](C)(C3)N4)nn1)C2 [Compound 274, 6-(1,3-dimethyl-1H-pyrazol-4-yl)-2-(6-(((1R,3s,5S)-1,5-dimethyl-8-azabicyclo[3.2.1]octan-3-yl)(methyl)amino)pyridazin-3-yl)-4-fluoroisoindolin-1-one] | 17 | – | 454
Cc1nn(C)cc1-c1cc(F)c2c(c1)C(=O)N(c1ccc(N(C)C3CC(C)(C)NC(C)(C)C3)nn1)C2 [Compound 275, 6-(1,3-dimethyl-1H-pyrazol-4-yl)-4-fluoro-2-(6-(methyl(2,2,6,6-tetramethylpiperidin-4-yl)amino)pyridazin-3-yl)isoindolin-1-one] | 79 | 26 | –
Cc1nn(C)cc1-c1cc(F)c2c(c1)C(=O)N(c1ccc(OC3CC(C)(C)NC(C)(C)C3)nn1)C2 [Compound 276, 6-(1,3-dimethyl-1H-pyrazol-4-yl)-4-fluoro-2-(6-((2,2,6,6-tetramethylpiperidin-4-yl)oxy)pyridazin-3-yl)isoindolin-1-one] | 103 | 38 | –
Cc1nn(C)cc1-c1cc(F)c2c(c1)C(=O)N(c1ccc(O[C@H]3C[C@]4(C)CC[C@](C)(C3)N4)nn1)C2 [Compound 278, 6-(1,3-dimethyl-1H-pyrazol-4-yl)-2-(6-(((1R,3s,5S)-1,5-dimethyl-8-azabicyclo[3.2.1]octan-3-yl)oxy)pyridazin-3-yl)-4-fluoroisoindolin-1-one] | 64 | 14 | –
Cc1nn(C)cc1-c1cc(F)c2c(c1)C(=O)N(c1ccc(O[C@H]3CC(C)(C)NC(C)(C)[C@H]3F)nn1)C2 [Compound 280, 6-(1,3-dimethyl-1H-pyrazol-4-yl)-4-fluoro-2-(6-(((3R,4S)-3-fluoro-2,2,6,6-tetramethylpiperidin-4-yl)oxy)pyridazin-3-yl)isoindolin-1-one] | 99 | 66 | –
Cc1nn(C)cc1-c1cc(F)c2c(c1)C(=O)N(c1ccc(O[C@H]3C[C@]4(C)CC[C@@](C)(N4)[C@H]3F)nn1)C2 [Compound 281, 6-(1,3-dimethyl-1H-pyrazol-4-yl)-4-fluoro-2-(6-(((1R,2R,3S,5S)-2-fluoro-1,5-dimethyl-8-azabicyclo[3.2.1]octan-3-yl)oxy)pyridazin-3-yl)isoindolin-1-one] | 85 | 41 | –
Cc1nn(C)nc1-c1cc(F)c2c(c1)C(=O)N(c1ccc(OC3CC(C)(C)NC(C)(C)C3)nn1)C2 [Compound 282, 6-(2,5-dimethyl-2H-1,2,3-triazol-4-yl)-4-fluoro-2-(6-((2,2,6,6-tetramethylpiperidin-4-yl)oxy)pyridazin-3-yl)isoindolin-1-one] | 30 | 59 | –
Cc1nn(C)nc1-c1cc(F)c2c(c1)C(=O)N(c1ccc(O[C@H]3C[C@]4(C)CC[C@](C)(C3)N4)nn1)C2 [Compound 283, 6-(2,5-dimethyl-2H-1,2,3-triazol-4-yl)-2-(6-(((1R,3s,5S)-1,5-dimethyl-8-azabicyclo[3.2.1]octan-3-yl)oxy)pyridazin-3-yl)-4-fluoroisoindolin-1-one] | 48 | 11 | 799
Cc1nn(C)cc1-c1cc(F)c2c(c1)C(=O)N(c1ccc(OC3CC(C)(C)NC4(CC4)C3)nn1)C2 (centres unmarked) [Compound 284, 6-(1,3-dimethyl-1H-pyrazol-4-yl)-2-(6-((5,5-dimethyl-4-azaspiro[2.5]octan-7-yl)oxy)pyridazin-3-yl)-4-fluoroisoindolin-1-one] | 91 | 73 | –
Cc1nc(C)c(-c2cc(F)c3c(c2)C(=O)N(c2ccc(O[C@H]4C[C@]5(C)CC[C@](C)(C4)N5)nn2)C3)s1 [Compound 286, 2-(6-(((1R,3s,5S)-1,5-dimethyl-8-azabicyclo[3.2.1]octan-3-yl)oxy)pyridazin-3-yl)-6-(2,4-dimethylthiazol-5-yl)-4-fluoroisoindolin-1-one] | 117 | 59 | –
Cc1nc(C)c(-c2cc(F)c3c(c2)C(=O)N(c2ccc(N(C)[C@H]4C[C@]5(C)CC[C@](C)(C4)N5)nn2)C3)s1 [Compound 289, 2-(6-(((1R,3s,5S)-1,5-dimethyl-8-azabicyclo[3.2.1]octan-3-yl)(methyl)amino)pyridazin-3-yl)-6-(2,4-dimethylthiazol-5-yl)-4-fluoroisoindolin-1-one] | 73 | 22 | –
Cc1nn(C)cc1-c1cc(F)c2c(c1)C(=O)N(c1cnc(N(C)[C@H]3C[C@]4(C)CC[C@](C)(C3)N4)nn1)C2 [Compound 291, 6-(1,3-dimethyl-1H-pyrazol-4-yl)-2-(3-(((1R,3s,5S)-1,5-dimethyl-8-azabicyclo[3.2.1]octan-3-yl)(methyl)amino)-1,2,4-triazin-6-yl)-4-fluoroisoindolin-1-one] | 93 | 81 | –
Cc1nn(C)nc1-c1cc(F)c2c(c1)C(=O)N(c1ccc(N(C)C3CC(C)(C)NC(C)(C)C3)nn1)C2 [Compound 293, 6-(2,5-dimethyl-2H-1,2,3-triazol-4-yl)-4-fluoro-2-(6-(methyl(2,2,6,6-tetramethylpiperidin-4-yl)amino)pyridazin-3-yl)isoindolin-1-one] | 54 | 12 | ~1060
Cc1nn(C)nc1-c1cc(F)c2c(c1)C(=O)N(c1ccc(N(C)[C@H]3C[C@]4(C)CC[C@](C)(C3)N4)nn1)C2 [Compound 294, 6-(2,5-dimethyl-2H-1,2,3-triazol-4-yl)-2-(6-(((1R,3s,5S)-1,5-dimethyl-8-azabicyclo[3.2.1]octan-3-yl)(methyl)amino)pyridazin-3-yl)-4-fluoroisoindolin-1-one] | 27 | 12 | 480
Cc1nn(C)cc1-c1cc(F)c2c(c1)C(=O)N(c1ccc(N3CCN[C@@H](C(C)C)C3)nn1)C2 [Compound 296, (S)-6-(1,3-dimethyl-1H-pyrazol-4-yl)-4-fluoro-2-(6-(3-isopropylpiperazin-1-yl)pyridazin-3-yl)isoindolin-1-one] | 54 | – | –
Cc1nn(C)nc1-c1cc(F)c2c(c1)C(=O)N(c1ccc(N3CCN[C@@H](C(C)(C)C)C3)nn1)C2 [Compound 298, (S)-2-(6-(3-(tert-butyl)piperazin-1-yl)pyridazin-3-yl)-6-(2,5-dimethyl-2H-1,2,3-triazol-4-yl)-4-fluoroisoindolin-1-one] | 89 | 29 | –
Cn1ncc(-c2ccc3c(c2)C(=O)N(c2ccc(OC4CC(C)(C)NC(C)(C)C4)nn2)C3)n1 [Compound 362, 6-(2-methyl-2H-1,2,3-triazol-4-yl)-2-(6-((2,2,6,6-tetramethylpiperidin-4-yl)oxy)pyridazin-3-yl)isoindolin-1-one] | 65 | 75 | –
CN(c1ccc(N2Cc3ccc(-c4cnn(C)c4)cc3C2=O)nn1)[C@H]1C[C@]2(C)CC[C@](C)(C1)N2 [Compound 367, 2-(6-(((1R,3s,5S)-1,5-dimethyl-8-azabicyclo[3.2.1]octan-3-yl)(methyl)amino)pyridazin-3-yl)-6-(1-methyl-1H-pyrazol-4-yl)isoindolin-1-one] | 57 | 27 | –
